The values below come from US12433885B2, “Procaspase combination therapy for glioblastoma” (THE BOARD OF TRUSTEES OF THE UNIVERSITY OF ILLINOIS, priority 2012, dated 2025).

Structures are written as SMILES.

One data set deals with 9 L (rat glioma) cells. Kind of data set: 9 L intracranial syngeneic rat glioma model, overall survival. It counts as in vivo. The following applies: for Median survival: F344 rats, intracranial 9 L, PAC-1 50 mg/kg oral gavage days 0-4, TMZ 50 mg/kg oral gavage days 5-9, 8 rats per group.
For the next data set, the system named is 9 L cell line. As to the kind of experiment: IC50 of PAC-1 with the 9 L cell line. It counts as cell-based. The note with it: Rattus norvegicus; 72 hour experiment; initial assessment. On the procedure:
The initial assessment for the IC50 for PAC-1 with the 9 L cell line is about 7 μM (72 hour experiment).

The nature of data set [1]: Neurotoxicity of oral PAC-1 in mice. It counts as in vivo. The note with it: given orally at up to 200 mg/kg.
Another data set relates to K7M2 cells. Kind of data set: Mouse model of metastatic osteosarcoma, survival. It counts as in vivo. The note with it: oral PAC-1 100 mg/kg in HPβCD and TMZ 50 mg/kg, sequential, daily for five consecutive days, from seven days after K7M2 injection; n=8 mice per group. The procedure: FIG. 4. PAC-1 synergizes with TMZ to extend survival in a mouse model of metastatic osteosarcoma. Seven days after injection of K7M2 cells, mice were treated orally with PAC-1 (100 mg/kg in HPβCD), TMZ (50 mg/kg […]), or a sequential treatment with each, daily for five consecutive days; n=8 mice per group.

Protocol for 9 L (rat glioma) cells: 9 L (rat glioma) cells were intracranially implanted in rats. PAC-1 (50 mg/kg in water) was administered via oral gavage on days 0-4, and TMZ (50 mg/kg in water) was given via oral gavage on days 5-9; 8 rates per group.
The in vivo rat experiments employed 9 L cells, a very aggressive tumor model, implanted inter-cranially in rats in 3 treatment groups (PAC-1 alone, TMZ alone, and the combination of PAC-1 and TMZ) and one control group.
PAC-1 was suspended in water, and given to the rats via oral gavage at 50 mg/kg (a relatively low dose) for 5 days followed by five days of TMZ dosing.
PAC-1 (50 mg/kg in water) was administered via oral gavage on days 0-4, and TMZ (50 mg/kg in H2O) was given via oral gavage on days 5-9.
9 L gliosarcoma was maintained as a solid subcutaneous mass in the flanks of F344 rats. For intracranial implantation, the 9 L gliosarcoma tumor was surgically excised from the carrier animal and sliced into 1 mm^3 pieces at the time of implantation.
The animals were divided into the following four experimental groups with eight animals per group: (1) Control, (2) PAC-1 alone, (3) TMZ alone, and (4) PAC-1+TMZ. The control animals only received water. Two groups of animals from PAC-1 alone and PAC-1+TMZ received an oral gavage of PAC-1 suspended in water starting day 0 six hours post implantation. PAC-1 was administered only for 5 days from day 0 to day 4. The animals from TMZ alone and PAC-1+TMZ groups received 5 doses of TMZ in water administered orally from day 5 to day 9.

In the data set on 9 L (rat glioma) cells, `C=CCc1cccc(/C=N/NC(=O)CN2CCN(Cc3ccccc3)CC2)c1O` [PAC-1, 2-(4-benzylpiperazin-1-yl)-N-[(2-hydroxy-3-prop-2-enyl-phenyl)methylideneamino]acetamide] showed a Median survival of 13.5 days. Also, the Neurotoxicity result in the data set with 9 L (rat glioma) cells (rats, PAC-1 50 mg/kg oral gavage for 5 days followed by five days of TMZ dosing) is “no neurotoxicity was observed”; in data set [1] it was “No neurotoxicity was observed”. Also, in the data set with 9 L cell line, the IC50 (as a rule, the concentration needed to halve the response being measured) is around 7 µM. Moreover, the “Synergy with TMZ to extend survival” value in the data set with K7M2 cells is reported as “synergizes”.

Turning to `Cn1nnc2c(C(N)=O)ncn2c1=O` [TMZ, Temozolomide, reference compound], in the data set on 9 L (rat glioma) cells, the Median survival stood at 20 days.
